Read-outs that look alike come from different tables or passages of the source.
Test system: Melanoma SKMEL-28 (MMR proficient)
Assay: MTT assay for 7-day toxicity assay
Assay type: cell-based
Outline: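 Cells seeded at 400 cells/well, attached overnight, then exposed to compound at 0.5–1000 μM final for 7 days at 37 °C, 5% CO2. Viability read by MTT, with a day-0 plate fixed at drug addition as reference.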

[1] = Homo sapiens, SK-MEL-28, 168 h, Melanoma SKMEL-28 (MMR proficient), 7-day MTT, single determinations, read-out: GI50
[2] = Melanoma SKMEL-28 (MMR proficient), 7-day MTT, single determinations, read-out: GI50
[3] = Homo sapiens, SK-MEL-28, Melanoma SKMEL-28 (MMR proficient), read-out: GI50
[4] = Melanoma SKMEL-28 (MMR proficient), read-out: GI50

Row | SMILES | GI50 [1] [µM] | GI50 [2] [µM] | GI50 [3] [µM] | GI50 [4] [µM] | GI50 (Homo sapiens, SK-MEL-28, Melanoma SKMEL-28 (MMR proficient), average of Table 1, read-out: TMZ GI50 Average) [µM]
1 | C#CCn1nnc2c(C(N)=O)ncn2c1=O [EE-001, 3-Propargyl-8-carbamoylimidazotetrazin-4-one] | 48.5 |  |  |  | 
2 | CCOC(=O)Cn1nnc2c(C(N)=O)ncn2c1=O [PX-016] | 92.8 | 91.3 |  |  | 
3 | COCn1nnc2c(C(N)=O)ncn2c1=O [PX-020] |  |  | 56.1 | 55.1 | 
4 | C[Si](C)(C)CCOCn1nnc2c(C(N)=O)ncn2c1=O [PX-021] |  |  | 47.1 | 56.8 | 
5 | Cn1nnc2c(C(N)=O)ncn2c1=O [TMZ, 3-Methyl-4-oxo-3,4-dihydro-imidazo[5,1-d][1,2,3,5]tetrazine-8-carboxylic acid amide, reference compound] | 419 | 443 | 431 |  | 431

— patent US8450479B2, “3-substituted-4-oxo-3,4-dihydro-imidazo[5,1-d][1,2,3,5-tetrazine-8-carboxylic acid amides and their use” (Pharminox Limited, priority 2007, dated 2013)
